Series [1] can be described thus: Phase II trial: adverse events (CTCAE v3.0). The format is in vivo, human. On the procedure: Ang-(1-7) was administered by subcutaneous injection once daily continuously. One cycle was defined as a 21-day period. Toxicities were assessed weekly during the first cycle and on the first day of each subsequent cycle. In the absence of unacceptable treatment-related toxicity, patients continued treatment until disease progression.
Two dose cohorts were planned. In the first cohort, twenty patients were treated at a dose of 20 mg daily which is similar to the weight-based dose of 400 mcg/kg identified as the MTD in the phase I study. Unlike the phase I study, this study utilized continuous daily dosing rather than five days every three weeks. A planned interim safety evaluation was performed after the enrollment of 10 patients in the first cohort. […] Patients in this cohort would have received Ang-(1-7) at a dose of 10 mg daily if excessive toxicities had been observed in the 20 mg cohort. Safety events that would trigger dose deescalation included 3 strokes in any cohort or other evidence of excessive toxicity.
Tumor measurements were performed using RECIST version 1.1 prior to initiation of treatment and then every two cycles until disease progression or unacceptable toxicity. Toxicities were graded using the Common Terminology Criteria for Adverse Events, version 3.0. […]

Series [2] can be described thus: Plasma Ang-(1-7) concentration, radioimmunoassay. To be noted: human, sc, median, RIA, P < 0.05 vs baseline. The class given is in vivo. On the procedure: In the phase I trial, statistically significant changes in PlGF concentrations were identified 4 hours after the first Ang-(1-7) injection. To prospectively evaluate this biomarker, PlGF levels as well as VEGF, Ang-(1-7), Ang II, and Ang I were measured prior to the first dose, 4 hours after the first dose, and after 21 days of treatment in the phase II trial. Blood samples were immediately placed on ice and processed within 30 minutes of collection. For the angiotensin peptides, blood was taken in an EDTA containing tube with a cocktail of inhibitors to prevent in vitro generation or degradation of peptides, as previously described. Plasma samples were stored at −80°C. Concentrations of Ang-(1-7) (developed by laboratory), Ang II (Alpco, Windham, NH), and Ang I (Peninsula, San Carlos, CA) were measured by the Hypertension Core Facility of Wake Forest University using three established radioimmunoassay methods. Aliquots of plasma from the same time points were assayed by Aushon Biosystems (Billerica, MA) using Searchlight ELISA technology to quantify circulating vascular endothelial growth factor (VEGF) and placental growth factor (PlGF). […]
The study was designed with 87% power to detect a response rate by RECIST criteria of 10% in the study population. […] Levels of biomarker expression over time were evaluated using nonparametric, Wilcoxon signed rank tests. […]

The conditions of series [3]: phase I, ref [16], cited from earlier work. The source says: A phase I trial using subcutaneous administration of Ang-(1-7) for the treatment of patients with advanced solid tumors was previously reported. This study evaluated the maximum tolerated dose (MTD), toxicities, and pharmacokinetics of Ang-(1-7) when given subcutaneously once daily for five consecutive days on a 21-day cycle. This study identified 400 mcg/kg as the MTD for this schedule.

Where two headings read alike, the source gives them in different places.

As to `CC[C@H](C)[C@H](NC(=O)[C@H](Cc1ccc(O)cc1)NC(=O)[C@@H](NC(=O)[C@H](CCCNC(=N)N)NC(=O)[C@@H](N)CC(=O)O)C(C)C)C(=O)N[C@@H](Cc1c[nH]cn1)C(=O)N1CCC[C@H]1C(=O)O` [Ang-(1-7), Angiotensin-(1-7)], the “deaths on study or within 30 days of completing treatment” value in series [1] (20 patients, all attributed to progressive cancer, felt unrelated to treatment) is listed as “Three”. Also, the pregnancy outcome in series [1] (in vivo) is “delivered a healthy child”. The same molecule yielded a level at 4 h in series [2] (4 hours after first dose, 20 mg s.c.) of 0.0611 ng/mL. Moreover, the level at 528 h in series [2] (day 22, 20 mg daily s.c.) worked out at 0.0412 ng/mL. Besides, the “serious adverse event at least possibly related” value in series [3] (400 mcg/kg dose level) was “deep vein thrombosis”; in series [3] (700 mcg/kg dose level (first event named)), “stroke”; in series [3] (700 mcg/kg dose level (second event named)) it was “cranial neuropathy”. For the same molecule, the “half-life at the MTD” value in series [3] (400 mcg/kg s.c., considerable intra- and interpatient variability) was 36 min. Further, in series [3] (s.c. once daily for five consecutive days on a 21-day cycle, advanced solid tumors), the “maximum tolerated dose (MTD)” value was 0.4 mg/kg.

Broadly, the half-life is the time needed for the level to fall by half in the phase considered.

Values taken from article PMC5118533, “Phase II Trial of Angiotensin-(1-7) for the Treatment of Patients with Metastatic Sarcoma” (Sarcoma, 2016).
